In ChEMBL document CHEMBL4800729 (2021):

Experiments:
[1] = target: Serine/threonine-protein kinase LATS1 (Homo sapiens) (UniProt O95835); experiment: LATS1(h) Millipore kinase panel; details: Compound concentration 1.0 uM
[2] = target: Casein kinase I isoform epsilon (Homo sapiens) (UniProt P49674); experiment: CK1epsilon(h) Millipore kinase panel; details: Compound concentration 1.0 uM
[3] = target: Dual specificity protein kinase CLK1 (Homo sapiens) (UniProt P49759); experiment: CLK1(h) Millipore kinase panel; details: Compound concentration 1.0 uM
[4] = target: Serine/threonine-protein kinase NLK (Homo sapiens) (UniProt Q9UBE8); experiment: NLK(h) Millipore kinase panel; details: Compound concentration 1.0 uM
[5] = target: Proto-oncogene tyrosine-protein kinase Src (Homo sapiens) (UniProt P12931); experiment: cSRC(h) Millipore kinase panel; details: Compound concentration 1.0 uM
[6] = target: Estrogen receptor (Homo sapiens) (UniProt P03372); details: Compound concentration 10.0 uM
[7] = target: Muscarinic acetylcholine receptor M5 (Homo sapiens) (UniProt P08912); details: Compound concentration 10.0 uM
[8] = target: Calcium/calmodulin-dependent protein kinase kinase 2 (Homo sapiens) (UniProt Q96RR4); experiment: CaMKK2(h) Millipore kinase panel; details: Compound concentration 1.0 uM
[9] = target: RAC-beta serine/threonine-protein kinase (Homo sapiens) (UniProt P31751); experiment: PKBbeta(h) Millipore kinase panel; details: Compound concentration 1.0 uM
[10] = target: Protein kinase C beta type (Homo sapiens) (UniProt P05771); experiment: PKCbetaII(h) Millipore kinase panel; details: Compound concentration 1.0 uM
[11] = target: Casein kinase II subunit alpha (Homo sapiens) (UniProt P68400); experiment: CK2(h) Millipore kinase panel; details: Compound concentration 1.0 uM
[12] = target: Beta-3 adrenergic receptor (Homo sapiens) (UniProt P13945); details: Compound concentration 10.0 uM
[13] = target: Serine/threonine-protein kinase Chk2 (Homo sapiens) (UniProt O96017); experiment: CHK2(h) Millipore kinase panel; details: Compound concentration 1.0 uM
[14] = target: Protein-tyrosine kinase 2-beta (Homo sapiens) (UniProt Q14289); experiment: Pyk2(h) Millipore kinase panel; details: Compound concentration 1.0 uM
[15] = target: Mitogen-activated protein kinase 9 (Homo sapiens) (UniProt P45984); experiment: JNK2alpha2(h) Millipore kinase panel; details: Compound concentration 1.0 uM
[16] = target: Serine/threonine-protein kinase tousled-like 1 (Homo sapiens) (UniProt Q9UKI8); experiment: TLK1(h) Millipore kinase panel; details: Compound concentration 1.0 uM
[17] = target: Cyclin-dependent kinase 14/Cyclin-Y (Homo sapiens) (UniProt O94921+Q8ND76); experiment: CDK14/cyclinY(h) Millipore kinase panel; type: protein-complex assay; details: Compound concentration 1.0 uM
[18] = target: Serine/threonine-protein kinase 33 (Homo sapiens) (UniProt Q9BYT3); experiment: STK33(h) Millipore kinase panel; details: Compound concentration 1.0 uM
[19] = target: Inhibitor of nuclear factor kappa-B kinase subunit beta (Homo sapiens) (UniProt O14920); experiment: IKKbeta(h) Millipore kinase panel; details: Compound concentration 1.0 uM
[20] = target: Serine/threonine-protein kinase Nek6 (Homo sapiens) (UniProt Q9HC98); experiment: NEK6(h) Millipore kinase panel; details: Compound concentration 1.0 uM
Sus scrofa = organism: Sus scrofa; experiment: Inhibition of ATPase, Na+/K+, Heart at compound concentration of 10.0 uM in the Eurofins-Panlabs enzyme assay (Eurofins_assay_107710); parameters: substrate with concentration; details: Compound concentration 10.0 uM
ATR/ATRIP (Homo sapiens) = ATR/ATRIP (Homo sapiens) (UniProt Q13535+Q8WXE1); experiment: ATR/ATRIP(h) Millipore kinase panel; type: protein-complex assay; details: Compound concentration 1.0 uM
[21] = target: Alpha-1A adrenergic receptor (Homo sapiens) (UniProt P35348); experiment: Inhibition of Adrenergic alpha1A at compound concentration of 10.0 uM in the Eurofins-Panlabs radioligand binding assay (Eurofins_assay_203110); parameters: ligand concentration 0.25 nM; details: Rattus norvegicus; Compound concentration 10.0 uM
[22] = target: Ribosomal protein S6 kinase alpha-4 (Homo sapiens) (UniProt O75676); experiment: MSK2(h) Millipore kinase panel; details: Compound concentration 1.0 uM
[23] = target: Testis-specific serine/threonine-protein kinase 1 (Homo sapiens) (UniProt Q9BXA7); experiment: TSSK1(h) Millipore kinase panel; details: Compound concentration 1.0 uM
[24] = target: Serine/threonine-protein kinase MRCK alpha (Homo sapiens) (UniProt Q5VT25); experiment: MRCKalpha(h) Millipore kinase panel; details: Compound concentration 1.0 uM
[25] = target: Serine/threonine-protein kinase D3 (Homo sapiens) (UniProt O94806); experiment: PKD3(h) Millipore kinase panel; details: Compound concentration 1.0 uM
[26] = target: RAC-alpha serine/threonine-protein kinase (Homo sapiens) (UniProt P31749); experiment: PKBalpha(h) Millipore kinase panel; details: Compound concentration 1.0 uM
[27] = target: NUAK family SNF1-like kinase 1 (Homo sapiens) (UniProt O60285); experiment: ARK5(h) Millipore kinase panel; details: Compound concentration 1.0 uM
[28] = target: AP2-associated protein kinase 1 (Homo sapiens) (UniProt Q2M2I8); experiment: AAK1(h) Millipore kinase panel; details: Compound concentration 1.0 uM
[29] = target: Tyrosine-protein kinase TXK (Homo sapiens) (UniProt P42681); experiment: Txk(h) Millipore kinase panel; details: Compound concentration 1.0 uM
[30] = target: Casein kinase I isoform delta (Homo sapiens) (UniProt P48730); experiment: CK1delta(h) Millipore kinase panel; details: Compound concentration 1.0 uM
[31] = target: Serine/threonine-protein kinase PAK 4 (Homo sapiens) (UniProt O96013); experiment: PAK4(h) Millipore kinase panel; details: Compound concentration 1.0 uM
[32] = target: Tyrosine-protein kinase receptor UFO (Homo sapiens) (UniProt P30530); experiment: Axl(h) Millipore kinase panel; details: Compound concentration 1.0 uM
[33] = target: STE20/SPS1-related proline-alanine-rich protein kinase (Homo sapiens) (UniProt Q9UEW8); experiment: STK39(h) Millipore kinase panel; details: Compound concentration 1.0 uM
[34] = target: Casein kinase II subunit alpha' (Homo sapiens) (UniProt P19784); experiment: CK2alpha2(h) Millipore kinase panel; details: Compound concentration 1.0 uM
[35] = target: T1, Alpha-2C adrenergic receptor (Homo sapiens) (UniProt P18825); details: Compound concentration 10.0 uM
T1 sequence (whole entry): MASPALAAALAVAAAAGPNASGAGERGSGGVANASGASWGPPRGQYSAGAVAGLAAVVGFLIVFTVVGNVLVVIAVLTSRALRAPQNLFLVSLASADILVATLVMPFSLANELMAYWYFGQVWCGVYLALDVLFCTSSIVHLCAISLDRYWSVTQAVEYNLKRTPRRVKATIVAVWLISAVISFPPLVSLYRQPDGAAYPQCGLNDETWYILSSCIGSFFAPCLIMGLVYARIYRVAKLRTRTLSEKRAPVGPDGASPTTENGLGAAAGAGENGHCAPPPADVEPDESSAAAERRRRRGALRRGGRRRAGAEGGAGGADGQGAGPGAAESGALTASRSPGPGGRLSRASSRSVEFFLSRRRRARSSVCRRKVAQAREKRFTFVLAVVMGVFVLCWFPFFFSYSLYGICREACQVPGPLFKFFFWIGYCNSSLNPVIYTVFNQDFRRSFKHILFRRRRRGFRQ

[36] = target: Eukaryotic translation initiation factor 2-alpha kinase 3 (Homo sapiens) (UniProt Q9NZJ5); experiment: PEK(h) Millipore kinase panel; details: Compound concentration 1.0 uM
[37] = target: Serine/threonine-protein kinase tousled-like 2 (Homo sapiens) (UniProt Q86UE8); experiment: TLK2(h) Millipore kinase panel; details: Compound concentration 1.0 uM
[38] = target: cGMP-specific 3',5'-cyclic phosphodiesterase (Homo sapiens) (UniProt O76074); details: Compound concentration 10.0 uM
[39] = target: Insulin receptor-related protein (Homo sapiens) (UniProt P14616); experiment: IRR(h) Millipore kinase panel; details: Compound concentration 1.0 uM
[40] = target: Ribosomal protein S6 kinase alpha-3 (Homo sapiens) (UniProt P51812); experiment: Rsk2(h) Millipore kinase panel; details: Compound concentration 1.0 uM

Serine/threonine-protein kinase 33 (Homo sapiens), sequence (Q9BYT3 whole entry, looked up): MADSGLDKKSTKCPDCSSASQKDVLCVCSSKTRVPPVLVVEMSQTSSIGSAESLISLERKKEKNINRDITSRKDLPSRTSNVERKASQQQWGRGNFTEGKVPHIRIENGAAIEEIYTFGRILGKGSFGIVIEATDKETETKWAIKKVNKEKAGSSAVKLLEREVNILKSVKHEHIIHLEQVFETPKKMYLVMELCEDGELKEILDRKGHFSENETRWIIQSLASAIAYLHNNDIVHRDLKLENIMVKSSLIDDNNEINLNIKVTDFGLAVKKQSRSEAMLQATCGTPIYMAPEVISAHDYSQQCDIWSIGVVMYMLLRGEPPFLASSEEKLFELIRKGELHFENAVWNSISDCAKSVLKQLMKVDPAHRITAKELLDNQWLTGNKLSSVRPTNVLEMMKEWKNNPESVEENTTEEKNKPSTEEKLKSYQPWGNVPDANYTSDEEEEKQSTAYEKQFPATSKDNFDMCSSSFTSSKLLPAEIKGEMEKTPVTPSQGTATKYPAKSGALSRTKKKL
Serine/threonine-protein kinase NLK (Homo sapiens), sequence (Q9UBE8 whole entry): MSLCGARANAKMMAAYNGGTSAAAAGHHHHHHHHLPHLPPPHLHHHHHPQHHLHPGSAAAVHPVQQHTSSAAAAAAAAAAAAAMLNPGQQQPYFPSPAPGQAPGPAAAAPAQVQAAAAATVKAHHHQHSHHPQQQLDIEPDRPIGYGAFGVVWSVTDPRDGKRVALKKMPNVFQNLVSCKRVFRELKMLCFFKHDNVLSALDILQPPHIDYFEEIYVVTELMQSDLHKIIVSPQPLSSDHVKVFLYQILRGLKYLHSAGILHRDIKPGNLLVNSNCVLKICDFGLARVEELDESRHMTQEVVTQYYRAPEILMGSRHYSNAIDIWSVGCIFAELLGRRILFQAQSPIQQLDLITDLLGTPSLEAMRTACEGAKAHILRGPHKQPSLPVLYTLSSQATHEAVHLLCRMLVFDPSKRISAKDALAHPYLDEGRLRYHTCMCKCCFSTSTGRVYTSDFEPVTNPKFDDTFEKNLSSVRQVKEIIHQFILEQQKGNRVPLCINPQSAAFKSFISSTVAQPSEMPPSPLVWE
Casein kinase II subunit alpha' (Homo sapiens), sequence (P19784 whole entry, looked up): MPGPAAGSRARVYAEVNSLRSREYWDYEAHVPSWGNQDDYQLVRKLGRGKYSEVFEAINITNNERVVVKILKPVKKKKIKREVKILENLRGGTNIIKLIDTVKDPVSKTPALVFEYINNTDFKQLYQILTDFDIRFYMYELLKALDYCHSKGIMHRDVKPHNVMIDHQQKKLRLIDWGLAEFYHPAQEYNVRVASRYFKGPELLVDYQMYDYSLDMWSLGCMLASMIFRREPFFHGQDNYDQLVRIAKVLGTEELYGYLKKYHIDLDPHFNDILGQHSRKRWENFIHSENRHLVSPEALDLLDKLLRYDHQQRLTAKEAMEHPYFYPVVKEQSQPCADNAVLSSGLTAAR
Serine/threonine-protein kinase tousled-like 1 (Homo sapiens), sequence (Q9UKI8 whole entry): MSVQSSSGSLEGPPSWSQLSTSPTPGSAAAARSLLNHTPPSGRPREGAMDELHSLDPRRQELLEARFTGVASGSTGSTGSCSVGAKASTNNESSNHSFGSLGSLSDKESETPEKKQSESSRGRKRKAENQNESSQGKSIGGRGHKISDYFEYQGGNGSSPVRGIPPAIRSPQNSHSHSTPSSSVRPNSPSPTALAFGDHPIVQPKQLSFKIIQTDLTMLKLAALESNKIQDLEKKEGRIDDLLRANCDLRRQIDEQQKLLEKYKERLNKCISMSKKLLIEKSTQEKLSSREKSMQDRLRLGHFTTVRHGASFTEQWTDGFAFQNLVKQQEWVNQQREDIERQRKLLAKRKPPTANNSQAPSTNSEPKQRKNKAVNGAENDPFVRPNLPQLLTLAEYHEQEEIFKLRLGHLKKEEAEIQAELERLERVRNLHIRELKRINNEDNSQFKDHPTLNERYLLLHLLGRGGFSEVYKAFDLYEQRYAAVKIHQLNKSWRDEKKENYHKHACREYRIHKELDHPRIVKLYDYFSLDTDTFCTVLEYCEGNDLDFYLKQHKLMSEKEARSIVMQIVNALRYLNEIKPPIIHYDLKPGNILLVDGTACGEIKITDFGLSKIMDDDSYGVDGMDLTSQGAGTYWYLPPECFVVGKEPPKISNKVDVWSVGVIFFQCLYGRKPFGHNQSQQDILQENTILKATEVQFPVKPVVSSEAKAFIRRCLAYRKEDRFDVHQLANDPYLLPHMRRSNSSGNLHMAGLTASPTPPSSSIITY
Insulin receptor-related protein (Homo sapiens), sequence (P14616 27-742 limits assumed): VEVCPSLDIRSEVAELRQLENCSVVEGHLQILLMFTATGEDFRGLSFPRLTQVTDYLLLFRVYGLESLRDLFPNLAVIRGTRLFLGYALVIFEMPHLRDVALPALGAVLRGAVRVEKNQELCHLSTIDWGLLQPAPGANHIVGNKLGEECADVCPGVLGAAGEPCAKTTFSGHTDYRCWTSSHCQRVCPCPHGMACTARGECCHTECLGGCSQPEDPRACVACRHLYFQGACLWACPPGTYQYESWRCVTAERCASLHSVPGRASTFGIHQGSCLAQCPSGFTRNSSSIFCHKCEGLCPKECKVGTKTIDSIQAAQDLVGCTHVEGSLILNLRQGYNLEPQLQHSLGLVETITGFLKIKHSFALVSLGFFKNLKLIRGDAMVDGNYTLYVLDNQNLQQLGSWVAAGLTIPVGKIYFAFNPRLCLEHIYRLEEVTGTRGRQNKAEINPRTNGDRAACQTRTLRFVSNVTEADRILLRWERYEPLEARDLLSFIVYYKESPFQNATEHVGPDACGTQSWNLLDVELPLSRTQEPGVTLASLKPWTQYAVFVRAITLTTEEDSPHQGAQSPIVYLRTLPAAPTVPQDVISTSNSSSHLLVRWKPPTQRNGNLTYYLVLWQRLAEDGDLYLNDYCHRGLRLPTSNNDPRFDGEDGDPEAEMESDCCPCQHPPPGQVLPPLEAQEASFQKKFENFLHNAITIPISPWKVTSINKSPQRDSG
Insulin receptor-related protein (Homo sapiens), sequence (P14616 747-1297 limits assumed): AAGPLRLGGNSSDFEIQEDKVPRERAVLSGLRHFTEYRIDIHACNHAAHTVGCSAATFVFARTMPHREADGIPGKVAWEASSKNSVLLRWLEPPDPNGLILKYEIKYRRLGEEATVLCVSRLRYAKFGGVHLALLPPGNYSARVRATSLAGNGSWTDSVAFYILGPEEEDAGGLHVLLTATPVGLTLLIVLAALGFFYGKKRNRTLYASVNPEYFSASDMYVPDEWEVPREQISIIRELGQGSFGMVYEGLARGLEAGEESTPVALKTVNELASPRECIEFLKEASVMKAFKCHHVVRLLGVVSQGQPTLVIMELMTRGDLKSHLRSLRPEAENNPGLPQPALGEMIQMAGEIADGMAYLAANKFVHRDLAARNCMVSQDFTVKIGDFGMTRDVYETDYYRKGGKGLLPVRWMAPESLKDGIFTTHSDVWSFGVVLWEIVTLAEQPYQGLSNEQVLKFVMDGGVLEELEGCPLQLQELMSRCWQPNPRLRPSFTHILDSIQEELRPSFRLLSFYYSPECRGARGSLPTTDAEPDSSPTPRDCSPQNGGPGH
Serine/threonine-protein kinase tousled-like 2 (Homo sapiens), sequence (Q86UE8 whole entry, looked up): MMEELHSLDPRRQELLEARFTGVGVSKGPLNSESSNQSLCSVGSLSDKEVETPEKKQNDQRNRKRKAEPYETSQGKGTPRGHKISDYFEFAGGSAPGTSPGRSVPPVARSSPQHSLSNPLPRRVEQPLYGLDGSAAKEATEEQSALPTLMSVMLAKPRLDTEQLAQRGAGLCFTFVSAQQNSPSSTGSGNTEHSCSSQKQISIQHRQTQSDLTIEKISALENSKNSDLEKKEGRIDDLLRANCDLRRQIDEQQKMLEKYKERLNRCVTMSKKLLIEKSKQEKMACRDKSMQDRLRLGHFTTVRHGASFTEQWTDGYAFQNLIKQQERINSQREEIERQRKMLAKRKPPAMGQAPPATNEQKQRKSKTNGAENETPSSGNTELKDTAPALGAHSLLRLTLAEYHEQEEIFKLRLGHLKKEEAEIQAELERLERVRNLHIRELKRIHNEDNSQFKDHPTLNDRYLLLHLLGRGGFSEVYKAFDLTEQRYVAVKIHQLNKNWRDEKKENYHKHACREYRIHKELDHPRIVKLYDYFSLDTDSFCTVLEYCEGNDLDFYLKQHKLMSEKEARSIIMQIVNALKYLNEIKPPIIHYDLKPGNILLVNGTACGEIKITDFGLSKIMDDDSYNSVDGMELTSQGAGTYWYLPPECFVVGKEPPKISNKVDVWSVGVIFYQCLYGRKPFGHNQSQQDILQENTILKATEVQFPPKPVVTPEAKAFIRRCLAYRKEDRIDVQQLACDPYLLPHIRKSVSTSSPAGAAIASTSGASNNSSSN
Alpha-1A adrenergic receptor (Homo sapiens), sequence (P35348 whole entry): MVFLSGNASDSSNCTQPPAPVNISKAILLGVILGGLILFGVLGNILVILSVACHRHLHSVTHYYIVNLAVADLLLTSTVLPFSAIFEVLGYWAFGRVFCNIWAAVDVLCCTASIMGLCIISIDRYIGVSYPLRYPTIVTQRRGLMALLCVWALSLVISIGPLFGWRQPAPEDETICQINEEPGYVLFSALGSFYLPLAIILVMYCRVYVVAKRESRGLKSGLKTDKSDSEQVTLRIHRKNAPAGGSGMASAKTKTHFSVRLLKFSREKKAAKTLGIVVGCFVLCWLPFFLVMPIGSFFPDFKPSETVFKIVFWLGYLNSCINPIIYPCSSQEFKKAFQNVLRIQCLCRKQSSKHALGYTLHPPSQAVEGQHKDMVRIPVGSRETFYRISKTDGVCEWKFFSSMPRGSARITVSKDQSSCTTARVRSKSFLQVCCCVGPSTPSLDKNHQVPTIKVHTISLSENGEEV
Serine/threonine-protein kinase Nek6 (Homo sapiens), sequence (Q9HC98 whole entry): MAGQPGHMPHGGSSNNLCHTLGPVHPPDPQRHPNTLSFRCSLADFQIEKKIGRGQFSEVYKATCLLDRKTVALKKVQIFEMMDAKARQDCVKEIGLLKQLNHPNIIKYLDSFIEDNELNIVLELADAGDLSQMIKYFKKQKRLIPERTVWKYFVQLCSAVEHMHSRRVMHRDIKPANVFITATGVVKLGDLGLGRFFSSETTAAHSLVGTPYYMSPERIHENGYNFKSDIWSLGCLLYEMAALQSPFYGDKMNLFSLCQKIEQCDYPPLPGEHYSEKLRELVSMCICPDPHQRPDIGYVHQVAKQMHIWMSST

CC[C@@H](Nc1c(C#N)c(-c2ccc(-c3cccc(C)c3F)cc2)nc2cnccc12)C(=O)O [BAY-091]
inhibition [1]: 8.31%
inhibition [2]: 8.85%
inhibition [3]: 3.74%
inhibition [4]: 8.59%
inhibition [5]: 7.51%
inhibition [6]: 10%
inhibition [7]: -4.26%
inhibition [8]: 11.3%
inhibition [9]: 3.52%
inhibition [10]: -1.59%
inhibition [11]: 4.66%
inhibition [12]: 16%
inhibition [13]: 5.38%
inhibition [14]: 10.7%
inhibition [15]: -1.41%
inhibition [16]: -0.87%
inhibition [17]: 18.1%
inhibition [18]: 2.82%
inhibition [19]: 2.85%
inhibition [20]: 9.31%
inhibition (Sus scrofa): 20%
inhibition (ATR/ATRIP (Homo sapiens)): 16.2%
inhibition [21]: -4%
inhibition [22]: -3.96%
inhibition [23]: 14.2%
inhibition [24]: -4.99%
inhibition [25]: 12.6%
inhibition [26]: -1.04%
inhibition [27]: 4.55%
inhibition [28]: 7.44%
inhibition [29]: -2.9%
inhibition [30]: 9.07%
inhibition [31]: 1.36%
inhibition [32]: 12.6%
inhibition [33]: 5.6%
inhibition [34]: -4.36%
inhibition [35]: 4%
inhibition [36]: 3.26%
inhibition [37]: 8.27%
inhibition [38]: 62%
inhibition [39]: 6.25%
inhibition [40]: 1.78%
